Here are results for five compounds from patent US20240341171A1 (Semiconductor Energy Laboratory Co., Ltd., priority 2021, published 2024).

Bounds are passed on as bounds.

The nature of data set [1]: Calculation of solubility parameter (SP value) by molecular dynamics (LAMMPS). Particulars: calculated SP value against reference SP value of chloroform (approx. 9.4).
From the text: The solubility parameter (SP value) δ can be calculated by Formula (1) shown in the following Formula 1 and Formula (2) shown in the following Formula 2, using a cohesive energy density obtained by a molecular dynamics (MD) method using the interaction between molecules in the molecular assembly.
Note that in the above Formula 1 and Formula 2, NA represents Avogadro's constant, V represents a molar volume of a molecular assembly, Ecoh represents a cohesive energy, Eassembly/number of molecules represents an energy per molecule in an assembly, and Eisolated molecule represents energy of each molecule that constitutes the assembly.
As the energy of the assembly (Eassembly) and the energy of each molecule that constitutes the assembly (Eisolated molecule), a three-dimensional coordinate of a molecule that is calculated using LAMMPS, which is an open source software, can be used.
Specifically, an initial state of the molecular assembly in which molecules are arranged at random is generated, using a single material system of molecules whose SP value σ is intended to be calculated. Next, the energy Eassembly of the assembly is calculated by performing a MD calculation using an NTP ensemble until when the energy and the volume go into an equilibrium state. On the other hand, the energy Eisolated molecule of each molecule that constitutes the assembly is calculated in the following manner: the volume and the shape of each molecule that constitutes the assembly are fixed and sampling is performed by the MD calculation using NVT ensemble. Next, statistical processing and substitution into Formula 1 and Formula 2 are performed, whereby the SP value δ is calculated.
First, the energy Eassembly of the assembly of the PTCDI derivatives is calculated. Specifically, an initial state (also referred to as a liquid model) of the molecular assembly which consists of a single system of 100 PTCDI derivatives (shown above as (a) to (i)) arranged at random, is generated. Next, the MD calculation using the NTP ensemble is performed until the energy and the volume go into an equilibrium state. In the MD calculation, samplings of Step 1 under high-temperature and pressure-rising conditions, Step 2 under high-temperature and pressure-rising conditions, Step 3 under high-temperature and high-pressure conditions, Step 4 under high-temperature and normal-pressure conditions, and Step 5 under normal-temperature and normal-pressure conditions are sequentially performed. The energy Eassembly/number of molecules per molecule of the PTCDI derivative is calculated by dividing the calculated value by 100.
The energy Eassembly of the assembly of the solvent is calculated.
Next, the MD calculation using the NTP ensemble is performed until the energy and the volume go into an equilibrium state. […]
A short description of data set [2]: Solubility test of PTCDI compounds (1 mg, solvent added in 1 mL steps, ultrasonic treatment, visual check). The class given is physicochemical. Conditions: for solubility: in chloroform and tetrahydrofuran, judged visually; for solvent [mL] CHCl3: volume of chloroform needed to dissolve 1 mg of compound; for solvent [mL] THF: volume of tetrahydrofuran needed to dissolve 1 mg of compound. The procedure:
In this example, a solubility test for a perylenetetracarboxylic diimide (PTCDI) compounds were performed.
First, 1 mg of each of the PTCDJ compounds represented by (a) to (d) were weighed out and added to transparent containers. Next, (1) 1 mL of a solvent was added, and then ultrasonic treatment was performed for 1 minute. After that, (2) whether the PTCDI compounds were dissolved in the solvents was checked visually.
In each PTCDI compound, aforementioned (1) and (2) were repeated until the PTCDI compounds were dissolved in the solvents. When a solution is colored in yellowish-orange and solids of materials disappear, the PTCDI compounds are regarded to be dissolved.

For data set [3] the following is noted: reference value from a website; cited from earlier work.

Regarding `CN1C(=O)c2ccc3c4ccc5c6c(ccc(c7ccc(c2c37)C1=O)c64)C(=O)N(C)C5=O`, the “difference in SP value σ CHCl3” value in data set [1] is reported as 2.9. In data set [2], the solubility result is “extremely poor”, the “solvent [mL] CHCl3” value was over 100 mL and the “solvent [mL] THF” value is listed as over 100 mL.
Take `CCCCCCCCN1C(=O)c2ccc3c4ccc5c6c(ccc(c7ccc(c2c37)C1=O)c64)C(=O)N(CCCCCCCC)C5=O`: the “difference in SP value σ CHCl3” value in data set [1] was 1.3. Besides, in data set [2], the solubility result is reported as “improved as compared with that of Me-PTCDI”, the “solvent [mL] CHCl3” value came to 55 mL and the “solvent [mL] THF” value was over 100 mL.
Turning to `CCCCC(CC)CN1C(=O)c2ccc3c4ccc5c6c(ccc(c7ccc(c2c37)C1=O)c64)C(=O)N(CC(CC)CCCC)C5=O` (centres unmarked), the “difference in SP value σ CHCl3” value in data set [1] is reported as 1.0. Further, in data set [2], the solubility entry is “improved as compared with that of PTCDI-C8”, the “solvent [mL] CHCl3” value was found to be 1 mL and the “solvent [mL] THF” value turned out to be 16 mL.
The matching figures for `CCC(CC)N1C(=O)c2ccc3c4ccc5c6c(ccc(c7ccc(c2c37)C1=O)c64)C(=O)N(C(CC)CC)C5=O` [(d) EtPr-PTCDI, 2,9-di(pentan-3-yl)anthra[2,1,9-def:6,5,10-d′e′f]diisoquinoline-1,3,8,10(2H,9H)-tetraone]: 0.9, “extremely favorable”, 1 mL and 1 mL.
With `ClC(Cl)Cl` [chloroform], the SP value result in data set [3] is “approximately 9.4 (cal/cm^3)^1/2”.
